# In US20030203969A1, “Pharmaceutically active aromatic guanylhydrazones” (priority 2000, published 2003):
# Like-named read-outs stand apart in the source and are kept apart here.
# Tests used:
# [1] = tested on: NRTI + PI-resistant HIV-1; test: Inhibition of multiple anti-retroviral drug resistant HIV-1 strains: NRTI + PI-resistant; assay type: cell-based
# Protocol: In addition, various different “types” of multiple anti-retroviral drug resistant HIV-1 strains were also tested: […]
# HBV = HBV replication in chronically infected HepG2 2.2.15 cells (TaqMan PCR of HBV DNA); assay type: cell-based, Hepatitis B virus; conditions: for IC50: chronically HBV-infected HepG2 2.2.15 cells
# Protocol: (§1) Human HepG2-2.2.15 cells (ATCC Cat. No. CRL-11997), chronically infected with HBV, are plated in 96-well microtiter plates in DMEM medium supplemented with fetal bovine serum. After incubation at 37° C. in a humidified, 5% CO2 environment for 16-24 hours, the monolayer of HepG2-2.2.15 cells is washed and the medium is replaced with complete medium containing various concentrations of test compound. Every three days during the experiments, the culture medium is replaced with fresh medium containing the appropriately diluted test compound. Six days following the initial administration of the test compound, the cell culture supernatant is collected and clarified by centrifugation. The cell viability is evaluated by a dye uptake procedure (Promega's Cell Titer Aqueous One Solution). Virion-associated HBV DNA present in the tissue culture supernatant is amplified employing PCR technology using primer pairs derived from the HBV strain ayw. Subsequently, the PCR-amplified HBV DNA is detected in real-time by monitoring increases in fluorescence signals that result from exonucleolytic degradation of a quenched fluorescent probe molecule following hybridization of the probe to the amplified HBV DNA (TaqMan; Perkin-Elmer).
# [2] = tested on: Lamivudine-resistant, mutant HBV; test: Transfected Lamivudine-resistant mutant HBV production in HepG2 cells; assay type: cell-based, Hepatitis B virus
# Protocol: as §1
# The same type of experiments was additionally performed with a mutant, Lamivudine-resistant HBV strain, which was transfected into HepG2 cells. […]
# [3] = tested on: herpes simplex virus type 1 (strain HF); test: HSV-1 cytopathic effect (CPE) inhibition assay in Vero cells (MTS); assay type: cell-based
# Source text: (§2) A virus-induced cytopathic effects (CPE)-inhibition assay procedure using Promega's Cell Titer Aqueous One Solution (MTS, metabolic dye) is employed to evaluate compounds for antiviral activity against herpes simplex virus type 1 (strain HF) in Vero cells (African green monkey cells, ATCC Cat. No. CCL-81). Vero cells are pregrown in 96-well tissue culture plates using Dulbecco's Modified Eagle's Medium (DMEM) supplemented with 10% heat-inactivated fetal bovine serum (FBS), L-glutamine, penicillin, and streptomycin. To each of the replicate cell cultures is added 50 μl of the test drug solution and 50 μl of virus suspension. Cell controls containing medium alone, virus-infected controls containing medium and virus, drug cytotoxicity controls containing medium and each drug concentration, reagent controls containing culture medium only (no cells), and drug calorimetric controls containing drug and medium (no cells) are run simultaneously with the test samples. The plates are incubated at 37° C. in a humidified atmosphere containing 5% CO2 until maximum CPE is observed in the untreated virus control cultures (Day 5). CPE inhibition is determined by a dye (MTS) uptake procedure. […] The purple color of the MTS formazan is then measured spectrophotometrically at 490/650 nm. […]
# Vero cells = test: Cytotoxicity in uninfected Vero cells (HSV-1 experiments, MTS); assay type: cell-based, African green monkey; conditions: inhibits cell growth by 50%, read-out: TC50 (the source's name)
# Source text: as §2
# VZV strain ELLEN = test: VZV plaque reduction assay in MRC-5 cells; assay type: cell-based, Varicella-zoster virus
# Protocol: MRC-5 (human embryonic lung fibroblast) cells (ATCC Cat. No. CCL-171) are seeded in 24 well plates using Eagle's Minimum Essential Medium (EMEM) supplemented with 10% heat-inactivated fetal bovine serum (FBS), L-glutamine, sodium pyruvate, non-essential amino acids, penicillin, and streptomycin. The plates are then incubated overnight at 37° C. and 5% CO2. The following day, media is aspirated and approximately 50-100 pfu (plaque forming units) of VZV strain ELLEN is added to the wells of each plate in a volume of 200 μl of assay media (EMEM supplemented with 5% heat-inactivated FBS, L-glutamine, sodium pyruvate, non-essential amino acids, penicillin, and streptomycin). The remaining wells of each plate serve as cellular control wells and receive 200 μl of assay media without virus. The virus is allowed to adsorb onto the cells for 1 hr at 37° C. and 5% CO2. Two dilutions of each test drug are prepared by diluting them in assay media containing 0.5% Methylcellulose. After the incubation period, 1 ml of each drug dilution is added to triplicate wells of a plate. Assay media (without drug) containing 0.5% Methylcellulose is added to the three cell control wells and to three virus control wells on each plate. The plates are incubated for 9-12 days to allow for plaque formation. […]
# [4] = biological target: T1, deoxyhypusine synthase (DHS) (Homo sapiens, UniProt P49366); test: In vitro DHS screening assay (hypusine formation on eIF-5A); assay type: biochemical
# T1 construct: made in house; host or cells: E. coli BL21 (DE3), pGex vector
# T1 sequence (P49366 1-369): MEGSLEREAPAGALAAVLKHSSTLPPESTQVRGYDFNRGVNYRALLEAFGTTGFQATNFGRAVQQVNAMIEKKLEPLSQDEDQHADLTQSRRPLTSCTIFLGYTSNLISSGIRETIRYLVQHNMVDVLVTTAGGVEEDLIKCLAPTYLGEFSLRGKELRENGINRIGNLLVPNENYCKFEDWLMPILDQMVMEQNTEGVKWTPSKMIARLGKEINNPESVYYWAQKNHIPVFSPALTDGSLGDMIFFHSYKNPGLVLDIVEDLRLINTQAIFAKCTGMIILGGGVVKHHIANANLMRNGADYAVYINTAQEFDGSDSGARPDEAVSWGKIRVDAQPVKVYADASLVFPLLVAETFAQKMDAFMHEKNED
compound,measurement,setting,value
"CC(=NNC(=N)N)c1cc(NC(=O)CCCCCCCCC(=O)Nc2cc(C(C)=NNC(=N)N)cc(C(C)=NNC(=N)N)c2)cc(C(C)=NNC(=N)N)c1 [Compound 4, N,N′-bis (3,5-diacetylphenyl) decane diamide tetrakis (amidinohydrazone)]",[%] inhibition of virus replication,"[1]; NRTI + PI-resistant HIV-1, 0.5 μM",68%
same,[%] inhibition of virus replication,"[1]; NRTI + PI-resistant HIV-1, 1.0 μM",73%
same,Comments,"HBV; HBV, HepG2 2.2.15 cells",Active
same,IC50,"HBV; six days, read-out: IC50 (μM) Virion-DNA",3.19 µM
same,IC50,HBV; read-out: IC50 (μM) Intracellular Viral DNA,4.96 µM
same,Comments,[2]; Lamivudine-resistant mutant HBV,Active
same,IC50,"[2]; Lamivudine-resistant mutant HBV transfected into HepG2 cells, read-out: IC50 (μM) Virion-DNA",2.78 µM
same,Comments,"[3]; HSV-1, Vero cells",Active
same,IC50,"[3]; HSV-infected Vero cells, reduces the CPE by 50%",1.56 µM
same,CC50,Vero cells,20.6 µM
same,IC50,VZV strain ELLEN; MRC-5 cells newly infected with VZV,4.69 µM
same,Comments,"VZV strain ELLEN; VZV, MRC-5 cells",Significant activity
same,inhibition of the hypusine formation on the elF-5A protein,[4],potent inhibitors
